The values below come from patent publication US20230065740A1, “CYCLIN-DEPENDENT KINASE INHIBITORS” (SPV THERAPEUTICS INC., priority 2018, published 2023).

One experiment concerns the target CDK4-CYCLIND1 (Homo sapiens, UniProt P11802). As to the kind of experiment: Microfluidic LabChip kinase inhibition assay, CDK4-CyclinD1. The settings on record: CDK4 IC50 (μM), Table 2; 200 μM ATP, 1 nM enzyme.
For a further experiment, the target named is T1, CDK6-CYCLIND3 (Homo sapiens, UniProt Q00534).
T1 construct: purchased Carna
As to the kind of experiment: Microfluidic LabChip kinase inhibition assay, CDK6-CyclinD3. Type of experiment: biochemical. The settings on record: Table 2; 300 μM ATP, 2 nM enzyme; read-out: CDK6 IC50.

CDK4-CYCLIND1, sequence (P11802 whole entry): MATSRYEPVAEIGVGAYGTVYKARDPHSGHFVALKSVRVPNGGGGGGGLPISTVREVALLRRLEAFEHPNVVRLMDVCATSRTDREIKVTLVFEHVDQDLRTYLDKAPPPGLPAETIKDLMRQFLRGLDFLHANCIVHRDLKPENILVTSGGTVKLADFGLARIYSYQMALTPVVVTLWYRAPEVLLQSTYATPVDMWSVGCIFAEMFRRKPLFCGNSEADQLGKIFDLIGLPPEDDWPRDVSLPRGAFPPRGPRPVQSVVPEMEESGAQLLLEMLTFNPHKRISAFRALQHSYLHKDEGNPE
CDK4-CYCLIND1, sequence (P24385 whole entry partner): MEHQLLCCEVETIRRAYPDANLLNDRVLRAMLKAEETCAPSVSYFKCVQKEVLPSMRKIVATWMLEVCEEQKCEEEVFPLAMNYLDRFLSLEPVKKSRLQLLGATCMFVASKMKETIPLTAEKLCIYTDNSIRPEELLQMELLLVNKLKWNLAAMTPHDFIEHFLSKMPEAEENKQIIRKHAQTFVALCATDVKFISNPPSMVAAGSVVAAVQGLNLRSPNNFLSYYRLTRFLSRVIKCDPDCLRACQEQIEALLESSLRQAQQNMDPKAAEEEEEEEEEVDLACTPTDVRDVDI
T1 sequence (Q00534 whole entry): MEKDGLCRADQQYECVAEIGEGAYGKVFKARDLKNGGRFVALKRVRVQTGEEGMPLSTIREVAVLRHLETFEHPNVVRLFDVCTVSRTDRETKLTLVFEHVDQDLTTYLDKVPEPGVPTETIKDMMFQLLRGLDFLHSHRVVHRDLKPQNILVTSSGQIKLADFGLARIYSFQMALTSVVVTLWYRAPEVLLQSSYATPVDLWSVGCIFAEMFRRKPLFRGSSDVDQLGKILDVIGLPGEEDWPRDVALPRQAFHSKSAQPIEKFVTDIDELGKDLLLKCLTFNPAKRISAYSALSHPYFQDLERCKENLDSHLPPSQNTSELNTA
T1 sequence (P30281 whole entry partner): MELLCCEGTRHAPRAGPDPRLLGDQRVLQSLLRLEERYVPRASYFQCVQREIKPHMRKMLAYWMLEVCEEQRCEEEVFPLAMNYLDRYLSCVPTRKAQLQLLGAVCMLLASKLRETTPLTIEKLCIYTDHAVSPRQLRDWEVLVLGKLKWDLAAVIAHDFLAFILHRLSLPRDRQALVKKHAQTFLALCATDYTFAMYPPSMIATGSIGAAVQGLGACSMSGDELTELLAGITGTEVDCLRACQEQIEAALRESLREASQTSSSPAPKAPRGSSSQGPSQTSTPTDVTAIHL
Procedure for CDK4-CYCLIND1: Inhibition assays were performed using microfluidic LabChip 300 Drug Discovery System from Caliper Life Sciences. […] The assay has a total volume of 10 μL consisting of 5 μL of enzyme and buffer and 5 μL of substrate and buffer. The test compounds were diluted in 100% dimethylsulfoxide (DMSO) using 3-fold dilution steps. […] Compounds were tested in a single well for each dilution and the final concentration of DMSO was maintained at 1%.
The assay buffer contained 100 mM HEPES, pH 7.5, 0.01% Triton X-100, 0.1% bovine serum albumin (BSA), 5 mM MgCl2; 1 mM dithiothreitol (DTT), 10 μM sodium orthovanadate, and 10 μM β-glycerophosphate.
The assay was conducted by adding 5 μL of enzyme, adenosine triphosphate (ATP) and buffer to an assay plate. A 100 nL aliquot of the diluted compounds were added to the plate. The assay was initiated by the addition of 5 μL of phosphoenolpyruvate substrate (PEP) in buffer. […] The reaction was terminated by the addition of EDTA. The plates were analyzed using a Caliper LabChip 3000.

In general, IC50 refers to the concentration that gives 50% inhibition. As for `CN(C)CCOc1ccc(Nc2ncc3c(n2)N(C2CCCC2)C2(CCNC2=O)C3)cn1` (centres unmarked) [Compound C61, 7′-cyclopentyl-2′-((6-(2-(dimethylamino)ethoxy)pyridin-3-yl)amino)-5′,7′-dihydrospiro[pyrrolidine-3,6′-pyrrolo[2,3-d]pyrimidin]-2-one], the IC50 against CDK4-CYCLIND1 stood at 0.19 µM; at CDK6-CYCLIND3, 0.793 µM.
Taken in the same sequence, the figures for `COc1cc(Nc2ncc3c(n2)N(C2CCCC2)C2(CCNC2=O)C3)ccc1N1CCN(C(C)C)CC1` (centres unmarked) [Compound C62, 7′-cyclopentyl-2′-((4-(4-isopropylpiperazin-1-yl)-3-methoxyphenyl)amino)-5′,7′-dihydrospiro[pyrrolidine-3,6′-pyrrolo[2,3-d]pyrimidin]-2-one] were 0.288 µM and 1.95 µM.
Consider `Cc1cc(Nc2ncc3c(n2)N(C2CCCC2)C2(CCNC2=O)C3)ccc1N1CCN(C(C)C)CC1` (centres unmarked) [Compound C63, 7′-cyclopentyl-2′-((4-(4-isopropylpiperazin-1-yl)-3-methylphenyl)amino)-5′,7′-dihydrospiro[pyrrolidine-3,6′-pyrrolo[2,3-d]pyrimidin]-2-one], for which the IC50 on CDK4-CYCLIND1 came to 0.172 µM; on CDK6-CYCLIND3, 0.899 µM.
Regarding `CN(C)C(=O)c1cc2cnc(Nc3ccc(N4CCN(C#N)CC4)cn3)nc2n1C1CCCC1` [Compound C64, 2-((5-(4-cyanopiperazin-1-yl)pyridin-2-yl)amino)-7-cyclopentyl-N,N-dimethyl-7H-pyrrolo[2,3-d]pyrimidine-6-carboxamide], the IC50 against CDK4-CYCLIND1 and at CDK6-CYCLIND3 was more than 30 µM in each case.
`CN1C(=O)CC2(Cc3cnc(Nc4ccc(N5CCNCC5)cn4)nc3N2C2CCCC2)C1=O` (centres unmarked) [Compound C65, 7′-cyclopentyl-1-methyl-2′-((5-(piperazin-1-yl)pyridin-2-yl)amino)-5′,7′-dihydrospiro[pyrrolidine-3,6′-pyrrolo[2,3-d]pyrimidine]-2,5-dione]: the IC50 came to 12.3 µM on CDK4-CYCLIND1 and 15.4 µM on CDK6-CYCLIND3.
For the compound `CN1CCN(c2ccc(Nc3ncc4c(n3)N(C3CCCC3)C3(CC(=O)N(C)C3=O)C4)nc2)CC1` (centres unmarked) [Compound C66, 7′-cyclopentyl-1-methyl-2′-((5-(4-methylpiperazin-1-yl)pyridin-2-yl)amino)-5′,7′-dihydrospiro[pyrrolidine-3,6′-pyrrolo[2,3-d]pyrimidine]-2,5-dione], the IC50 on CDK4-CYCLIND1 is 29.8 µM; at CDK6-CYCLIND3 it was more than 30 µM.
Take `CC(C)N1CCN(c2ccc(Nc3ncc4c(n3)N(C3CCCC3)C3(CC(=O)N(C)C3=O)C4)nc2)CC1` (centres unmarked) [Compound C67, 7′-cyclopentyl-2′-((5-(4-isopropylpiperazin-1-yl)pyridin-2-yl)amino)-1-methyl-5′,7′-dihydrospiro[pyrrolidine-3,6′-pyrrolo[2,3-d]pyrimidine]-2,5-dione]: the IC50 on CDK4-CYCLIND1 was 26.7 µM; on CDK6-CYCLIND3, more than 30 µM.
Regarding `CN1C(=O)CC2(Cc3cnc(Nc4ccc(N5CCNCC5)cc4)nc3N2C2CCCC2)C1=O` (centres unmarked) [Compound C68, 7′-cyclopentyl-1-methyl-2′-((4-(piperazin-1-yl)phenyl)amino)-5′,7′-dihydrospiro[pyrrolidine-3,6′-pyrrolo[2,3-d]pyrimidine]-2,5-dione], the IC50 turned out to be 2.49 µM against CDK4-CYCLIND1 and 6.68 µM at CDK6-CYCLIND3.
Take `CN1CCN(c2ccc(Nc3ncc4c(n3)N(C3CCCC3)C3(CC(=O)N(C)C3=O)C4)cc2)CC1` (centres unmarked) [Compound C69, 7′-cyclopentyl-1-methyl-2′-((4-(4-methylpiperazin-1-yl)phenyl)amino)-5′,7′-dihydrospiro[pyrrolidine-3,6′-pyrrolo[2,3-d]pyrimidine]-2,5-dione]: the results for the IC50 at CDK4-CYCLIND1 and on CDK6-CYCLIND3 were 1.08 µM and 2.79 µM, respectively.
Taken in the same sequence, the figures for `CC(C)N1CCN(c2ccc(Nc3ncc4c(n3)N(C3CCCC3)C3(CC(=O)N(C)C3=O)C4)cc2)CC1` (centres unmarked) [Compound C70, 7′-cyclopentyl-2′-((4-(4-isopropylpiperazin-1-yl)phenyl)amino)-1-methyl-5′,7′-dihydrospiro[pyrrolidine-3,6′-pyrrolo[2,3-d]pyrimidine]-2,5-dione] were 0.159 µM and 0.346 µM.
Taken in the same sequence, the figures for `CN1C(=O)CC2(Cc3cnc(Nc4ccc(N5CCNCC5)c(F)c4)nc3N2C2CCCC2)C1=O` (centres unmarked) [Compound C71, 7′-cyclopentyl-2′-((3-fluoro-4-(piperazin-1-yl)phenyl)amino)-1-methyl-5′,7′-dihydrospiro[pyrrolidine-3,6′-pyrrolo[2,3-d]pyrimidine]-2,5-dione] were 4.94 µM and 11.7 µM.
`CN1CCN(c2ccc(Nc3ncc4c(n3)N(C3CCCC3)C3(CC(=O)N(C)C3=O)C4)cc2F)CC1` (centres unmarked) [Compound C72, 7′-cyclopentyl-2′-((3-fluoro-4-(4-methylpiperazin-1-yl)phenyl)amino)-1-methyl-5′,7′-dihydrospiro[pyrrolidine-3,6′-pyrrolo[2,3-d]pyrimidine]-2,5-dione]: the IC50 against CDK4-CYCLIND1 stood at 2.53 µM; at CDK6-CYCLIND3 it was 13.9 µM.
`CC(C)N1CCN(c2ccc(Nc3ncc4c(n3)N(C3CCCC3)C3(CC(=O)N(C)C3=O)C4)cc2F)CC1` (centres unmarked) [Compound C73, 7′-cyclopentyl-2′-((3-fluoro-4-(4-isopropylpiperazin-1-yl)phenyl)amino)-1-methyl-5′,7′-dihydrospiro[pyrrolidine-3,6′-pyrrolo[2,3-d]pyrimidine]-2,5-dione]: the IC50 against CDK4-CYCLIND1 amounted to 1.94 µM; at CDK6-CYCLIND3, 9.74 µM.
Taken in the same sequence, the figures for `O=C1CC2(Cc3cnc(Nc4ccc(N5CCNCC5)cn4)nc3N2C2CCCC2)C(=O)N1` (centres unmarked) [Compound C74, 7′-cyclopentyl-2′-((5-(piperazin-1-yl)pyridin-2-yl)amino)-5′,7′-dihydrospiro[pyrrolidine-3,6′-pyrrolo[2,3-d]pyrimidine]-2,5-dione] were 22.7 µM and 84.5 µM.
On to `CN1CCN(c2ccc(Nc3ncc4c(n3)N(C3CCCC3)C3(CC(=O)NC3=O)C4)nc2)CC1` (centres unmarked) [Compound C75, 7′-cyclopentyl-2′-((5-(4-methylpiperazin-1-yl)pyridin-2-yl)amino)-5′,7′-dihydrospiro[pyrrolidine-3,6′-pyrrolo[2,3-d]pyrimidine]-2,5-dione], for which the IC50 against CDK4-CYCLIND1 is 0.0203 µM; on CDK6-CYCLIND3, 0.0348 µM.
Regarding `CC(C)N1CCN(c2ccc(Nc3ncc4c(n3)N(C3CCCC3)C3(CC(=O)NC3=O)C4)nc2)CC1` (centres unmarked) [Compound C76, 7′-cyclopentyl-2′-((5-(4-isopropylpiperazin-1-yl)pyridin-2-yl)amino)-5′,7′-dihydrospiro[pyrrolidine-3,6′-pyrrolo[2,3-d]pyrimidine]-2,5-dione], the IC50 against CDK4-CYCLIND1 worked out at 0.103 µM; on CDK6-CYCLIND3, 0.139 µM.
With `O=C1CC2(Cc3cnc(Nc4ccc(N5CCNCC5)cc4)nc3N2C2CCCC2)C(=O)N1` (centres unmarked) [Compound C77, 7′-cyclopentyl-2′-((4-(piperazin-1-yl)phenyl)amino)-5′,7′-dihydrospiro[pyrrolidine-3,6′-pyrrolo[2,3-d]pyrimidine]-2,5-dione], the IC50 was determined as 0.0251 µM at CDK4-CYCLIND1 and 0.131 µM at CDK6-CYCLIND3.
Consider `CN1CCN(c2ccc(Nc3ncc4c(n3)N(C3CCCC3)C3(CC(=O)NC3=O)C4)cc2)CC1` (centres unmarked) [Compound C78, 7-cyclopentyl-2′-((4(4-methylpiperazin-1-yl)phenyl)amino)-5′,7′-dihydrospiro[pyrrolidine-3,6′-pyrrolo[2,3-d]pyrimidine]-2,5-dione], for which the values for the IC50 against CDK4-CYCLIND1 and at CDK6-CYCLIND3 were 0.0667 µM and 0.35 µM, respectively.
Taken in the same sequence, the figures for `CC(C)N1CCN(c2ccc(Nc3ncc4c(n3)N(C3CCCC3)C3(CC(=O)NC3=O)C4)cc2)CC1` (centres unmarked) [Compound C79, 7′-cyclopentyl-2′-((4-(4-isopropylpiperazin-1-yl)phenyl)amino)-5′,7′-dihydrospiro[pyrrolidine-3,6′-pyrrolo[2,3-d]pyrimidine]-2,5-dione] were 0.021 µM and 0.13 µM.
As for `O=C1CC2(Cc3cnc(Nc4ccc(N5CCNCC5)c(F)c4)nc3N2C2CCCC2)C(=O)N1` (centres unmarked) [Compound C80, 7′-cyclopentyl-2′-((3-fluoro-4-(piperazin-1-yl)phenyl)amino)-5′,7′-dihydrospiro[pyrrolidine-3,6′-pyrrolo[2,3-d]pyrimidine]-2,5-dione], the IC50 on CDK4-CYCLIND1 amounted to 0.0134 µM; at CDK6-CYCLIND3 it was 0.0792 µM.
On to `CN1CCN(c2ccc(Nc3ncc4c(n3)N(C3CCCC3)C3(CC(=O)NC3=O)C4)cc2F)CC1` (centres unmarked) [Compound C81, 7′-cyclopentyl-2′-((3-fluoro-4-(4-methylpiperazin-1-yl)phenyl)amino)-5′,7′-dihydrospiro[pyrrolidine-3,6′-pyrrolo[2,3-d]pyrimidine]-2,5-dione], for which the values for the IC50 against CDK4-CYCLIND1 and at CDK6-CYCLIND3 were 0.0162 µM and 0.0733 µM, respectively.
Taken in the same sequence, the figures for `CC(C)N1CCN(c2ccc(Nc3ncc4c(n3)N(C3CCCC3)C3(CC(=O)NC3=O)C4)cc2F)CC1` (centres unmarked) [Compound C82, 7′-cyclopentyl-2′-((3-fluoro-4-(4-isopropylpiperazin-1-yl)phenyl)amino)-5′,7′-dihydrospiro[pyrrolidine-3,6′-pyrrolo[2,3-d]pyrimidine]-2,5-dione] were 0.0222 µM and 0.124 µM.
Take `O=C1CC2(Cc3cnc(Nc4ccc(N5CCNCC5)nc4)nc3N2C2CCCC2)C(=O)N1` (centres unmarked) [Compound C83, 7′-cyclopentyl-2′-((6-(piperazin-1-yl)pyridin-3-yl)amino)-5′,7′-dihydrospiro[pyrrolidine-3,6′-pyrrolo[2,3-d]pyrimidine]-2,5-dione]: the 50% inhibitory concentration (IC50) at CDK4-CYCLIND1 stood at 0.0516 µM; at CDK6-CYCLIND3, 0.168 µM.
Taken in the same sequence, the figures for `CN1CCN(c2ccc(Nc3ncc4c(n3)N(C3CCCC3)C3(CC(=O)NC3=O)C4)cn2)CC1` (centres unmarked) [Compound C84, 7′-cyclopentyl-2′-((6-(4-methylpiperazin-1-yl)pyridin-3-yl)amino)-5′,7′-dihydrospiro[pyrrolidine-3,6′-pyrrolo[2,3-d]pyrimidine]-2,5-dione] were 0.0399 µM and 0.173 µM.
In the case of `CC(C)N1CCN(c2ccc(Nc3ncc4c(n3)N(C3CCCC3)C3(CC(=O)NC3=O)C4)cn2)CC1` (centres unmarked) [Compound C85, 7′-cyclopentyl-2′-((6-(4-isopropylpiperazin-1-yl)pyridin-3-yl)amino)-5′,7′-dihydrospiro[pyrrolidine-3,6′-pyrrolo[2,3-d]pyrimidine]-2,5-dione], the results for the IC50 at CDK4-CYCLIND1 and at CDK6-CYCLIND3 were 0.0489 µM and 0.214 µM, respectively.
